These results are taken from patent US20100204203A1, “Chemical Compounds 637: Pyridopyrimidinediones as PDE4 Inhibitors” (priority 2007, published 2010).

The target of this experiment is recombinant Human Phosphodiesterase B2 (PDE4B2) (Homo sapiens, UniProt Q07343). Put plainly: Human Phosphodiesterase B2 Radiometric Assay (yttrium silicate SPA beads, [3H]cyclic AMP). Format: biochemical. The note with it: recombinant human PDE4B2, radiometric SPA assay, 8 nM [3H]cyclic AMP; read-out: PDE4B2 pIC50 (converted). The method, boiled down: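 Compounds were preincubated 30 min at 30 °C with 0.1 mg/mL PDE4B2 in 50 mM HEPES pH 7.5, 8.3 mM MgCl2, 1.7 mM EGTA, 0.01% Brij 35. Then 8 nM [3H]cAMP was added for 20 min, stopped with yttrium silicate SPA beads plus 18 mM ZnSO4 capturing product 5′AMP; pIC50 by curve fitting.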
Chain of recombinant Human Phosphodiesterase B2 (PDE4B2) (Q07343 1-564 isoform Q07343-2): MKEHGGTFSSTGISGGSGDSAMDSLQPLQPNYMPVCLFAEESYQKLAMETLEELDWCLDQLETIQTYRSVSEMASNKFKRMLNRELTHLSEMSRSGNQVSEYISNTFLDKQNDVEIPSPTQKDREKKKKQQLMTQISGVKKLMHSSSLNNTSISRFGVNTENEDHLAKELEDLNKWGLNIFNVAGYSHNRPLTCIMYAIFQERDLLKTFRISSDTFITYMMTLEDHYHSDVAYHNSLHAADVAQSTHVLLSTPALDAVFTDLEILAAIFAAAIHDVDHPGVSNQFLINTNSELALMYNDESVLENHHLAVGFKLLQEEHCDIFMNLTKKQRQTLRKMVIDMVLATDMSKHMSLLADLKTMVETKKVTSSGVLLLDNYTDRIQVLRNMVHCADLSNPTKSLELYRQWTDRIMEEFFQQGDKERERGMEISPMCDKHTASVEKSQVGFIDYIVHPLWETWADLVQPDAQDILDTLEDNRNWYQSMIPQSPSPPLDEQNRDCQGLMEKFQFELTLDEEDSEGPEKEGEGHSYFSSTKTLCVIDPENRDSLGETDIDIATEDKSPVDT
As for `CC(=O)N[C@H]1CC[C@@H](n2c(=O)c3cc(F)cnc3n(-c3cccc(-c4ccccc4)c3)c2=O)CC1` [Example 65, N-[cis-4-(1-biphenyl-3-yl-6-fluoro-2,4-dioxo-1,4-dihydropyrido[2,3-d]pyrimidin-3(2H)-yl)cyclohexyl]acetamide], the IC50 was 0.398 nM.

Take `COc1ccc(CN[C@H]2CC[C@@H](n3c(=O)c4cc(F)cnc4n(-c4cccc(-c5ccc(CN6CCN(C(C)C)CC6)cc5)c4)c3=O)CC2)cc1OC(C)=O` [Example 257, 5-[({cis-4-[6-Fluoro-1-{4′-[(4-isopropylpiperazin-1-yl)methyl]biphenyl-3-yl}-2,4-dioxo-1,4-dihydropyrido[2,3-d]pyrimidin-3(2H)-yl]cyclohexyl}amino)methyl]-2-methoxyphenyl acetate]: the IC50 was 0.794 nM.

As for `CN(C)CCCC(=O)N[C@H]1CC[C@@H](n2c(=O)c3cc(F)cnc3n(-c3cccc(-c4ccccc4)c3)c2=O)CC1` [Example 93, N-[cis-4-(1-biphenyl-3-yl-6-fluoro-2,4-dioxo-1,4-dihydropyrido[2,3-d]pyrimidin-3(2H)-yl)cyclohexyl]-4-(dimethylamino)butanamide], the IC50 was 5.01 nM.

As to `C[N+](C)(C)Cc1ccc(-c2cccc(-n3c(=O)n([C@H]4CC[C@@H](NC(=O)c5cn6cc(F)ccc6n5)CC4)c(=O)c4cc(F)cnc43)c2)cc1` [Example 87, {3-[6-fluoro-3-(cis-4-{[(6-fluoroimidazo[1,2-a]pyridin-2-yl)carbonyl]amino}cyclohexyl)-2,4-dioxo-3,4-dihydropyrido[2,3-a]pyrimidin-1(2H)-yl]biphenyl-4-yl]-N,N,N-trimethylmethanaminium iodide], the IC50 is 0.316 nM.

In the case of `O=C(N[C@H]1CC[C@@H](n2c(=O)c3cc(F)cnc3n(-c3ccc4c(cnn4Cc4ccccc4)c3)c2=O)CC1)c1cn2cc(F)ccc2n1` [Example 39, N-{cis-4-[1-(1-benzyl-1H-indazol-5-yl)-6-fluoro-2,4-dioxo-1,4-dihydropyrido[2,3-d]pyrimidin-3 (2H)-yl]cyclohexyl}-6-fluoroimidazo[1,2-a]pyridine-2-carboxamide], the IC50 was 10 nM.

As to `O=c1c2cc(F)cnc2n(-c2cccc(-c3ccc(O)cc3CN3CCOCC3)c2)c(=O)n1[C@H]1CC[C@@H](NCc2cn3c(n2)CCCC3)CC1` [Example 252, 6-Fluoro-1-[4′-hydroxy-2′-(morpholin-4-ylmethyl)biphenyl-3-yl]-3-{cis-4-[(5,6,7,8-tetrahydroimidazo[1,2-a]pyridin-2-ylmethyl)amino]cyclohexyl}pyrido[2,3-d]pyrimidine-2,4(1H,3H)-dione], the IC50 was 0.398 nM.

Turning to `CC(C)N1CCN(Cc2ccc(-c3cccc(-n4c(=O)n([C@H]5CC[C@@H](NC(=O)CC6CCOCC6)CC5)c(=O)c5cc(F)cnc54)c3)cc2)CC1` [Example 234, N-{cis-4-[6-fluoro-1-{4′-[(4-isopropylpiperazin-1-yl)methyl]biphenyl-3-yl}-2,4-dioxo-1,4-di-hydropyrido[2,3-d]pyrimidin-3(2H)-yl]cyclohexyl}-2-(tetrahydro-2H-pyran-4-yl)acetamide], the IC50 is 0.1 nM.

In the case of `CN(CC(=O)N(C)C)Cc1cc(O)ccc1-c1cccc(-n2c(=O)n([C@H]3CC[C@@H](NCc4cn5cc(F)ccc5n4)CC3)c(=O)c3cc(F)cnc32)c1` [Example 378, N~2~-({3′-[6-fluoro-3-(cis-4-{[(6-fluoroimidazo[1,2-a]pyridin-2-yl)methyl]amino}cyclohexyl)-2,4-dioxo-3,4-dihydropyrido[2,3-d]pyrimidin-1(2H)-yl]-4-hydroxybiphenyl-2-yl}methyl)-N,N,N~2~-trimethylglycinamide], the IC50 is 0.316 nM.

On to `Cc1cc(C(=O)N[C@H]2CC[C@@H](n3c(=O)c4cc(F)cnc4n(-c4cccc(-c5ccc(CN6CCN(C7CCCC7)CC6)cc5)c4)c3=O)CC2)nn1C` [Example 215, N-{cis-4-[1-{4′-[(4-cyclopentylpiperazin-1-yl)methyl]biphenyl-3-yl}-6-fluoro-2,4-dioxo-1,4-dihydropyrido[2,3-d]pyrimidin-3(2H)-yl]cyclohexyl}-1,5-dimethyl-1H-pyrazole-3-carboxamide], for which the IC50 was 0.0316 nM.

With `Cc1nc(C(=O)N[C@H]2CC[C@@H](n3c(=O)c4cc(F)cnc4n(-c4cccc(-c5ccc(CN6C[C@@H](C)N[C@@H](C)C6)cc5)c4)c3=O)CC2)cs1` [Example 301, N-{cis-4-[1-(4′-{[(3R,5S)-3,5-dimethylpiperazin-1-yl]methyl}biphenyl-3-yl)-6-fluoro-2,4-dioxo-1,4-dihydropyrido[2,3-d]pyrimidin-3(2H)-yl]cyclohexyl}-2-methyl-1,3-thiazole-4-carboxamide], the IC50 was 0.0398 nM.

As to `CN(C)Cc1cc(F)ccc1-c1cccc(-n2c(=O)n([C@H]3CC[C@@H](NC(=O)c4cn5cc(F)ccc5n4)CC3)c(=O)c3cc(F)cnc32)c1` [Example 273, N-{cis-4-[1-{2′-[(Dimethylamino)methyl]-4′-fluorobiphenyl-3-yl}-6-fluoro-2,4-dioxo-1,4-dihydropyrido[2,3-d]pyrimidin-3(2H)-yl]cyclohexyl}-6-fluoroimidazo[1,2-a]pyridine-2-carboxamide], the IC50 was 0.00398 nM.

Consider `O=C(N[C@H]1CC[C@@H](n2c(=O)c3cc(F)cnc3n(-c3cccc(-c4ccc(CN5CCSCC5)cc4)c3)c2=O)CC1)c1cn2c(n1)CCCC2` [Example 135, N-{cis-4-[6-fluoro-2,4-dioxo-1-[4′-(thiomorpholin-4-ylmethyl)biphenyl-3-yl]-1,4-dihydropyrido[2,3-d]pyrimidin-3(2H)-yl]cyclohexyl}-5,6,7,8-tetrahydroimidazo[1,2-a]pyridine-2-carboxamide], for which the IC50 is 0.00316 nM.

With `CN(C)CCOc1ccc(-c2cccc(-n3c(=O)n([C@H]4CC[C@@H](NC(=O)c5cn6cc(F)ccc6n5)CC4)c(=O)c4cc(F)cnc43)c2)cc1` [Example 78, N-{cis-4-[1-{4′-[2-(dimethylamino)ethoxy]biphenyl-3-yl}-6-fluoro-2,4-dioxo-1,4-dihydropyrido[2,3-d]pyrimidin-3(2H)-yl]cyclohexyl}-6-fluoroimidazo[1,2-a]pyridine-2-carboxamide], the IC50 is 0.0398 nM.

For `Cc1nc(C(=O)N[C@H]2CC[C@@H](n3c(=O)c4cc(F)cnc4n(-c4cccc(-c5ccc(CN6CCCNCC6)cc5)c4)c3=O)CC2)cs1` [Example 349, N-{cis-4-[1-[4′-(1,4-diazepan-1-ylmethyl)biphenyl-3-yl]-6-fluoro-2,4-dioxo-1,4-dihydropyrido[2,3-d]pyrimidin-3(2H)-yl]cyclohexyl}-2-methyl-1,3-thiazole-4-carboxamide], the IC50 is 0.02 nM.

With `CN(Cc1ccc(-c2cccc(-n3c(=O)n([C@H]4CC[C@@H](NC(=O)c5cn6cc(F)ccc6n5)CC4)c(=O)c4cc(F)cnc43)c2)cc1)C(C)(C)C` [Example 57, N-{cis-4-[1-(4′-{[tert-butyl(methyl)amino]methyl}biphenyl-3-yl)-6-fluoro-2,4-dioxo-1,4-dihydropyrido[2,3-d]pyrimidin-3(2H)-yl]cyclohexyl}-6-fluoroimidazo[1,2-a]pyridine-2-carboxamide], the IC50 is 0.1 nM.

Regarding `CN(CCc1ccc(-c2cccc(-n3c(=O)n([C@H]4CC[C@@H](NC(=O)c5cn6cc(F)ccc6n5)CC4)c(=O)c4cc(F)cnc43)c2)cc1)C(C)(C)C` [Example 101, N-{cis-4-[1-(4′-{2-[tert-butyl(methyl)amino]ethyl}biphenyl-3-yl)-6-fluoro-2,4-dioxo-1,4-dihydropyrido[2,3-d]pyrimidin-3(2H)-yl]cyclohexyl}-6-fluoroimidazo[1,2-a]pyridine-2-carboxamide], the IC50 is 0.1 nM.

Take `CC(C)N1CCN(Cc2ccc(-c3cccc(-n4c(=O)n([C@H]5CC[C@@H](NC(=O)c6nccn6C)CC5)c(=O)c5cc(F)cnc54)c3)cc2)CC1` [Example 239, N-{cis-4-[6-fluoro-1-{4′-[(4-isopropylpiperazin-1-yl)methyl]biphenyl-3-yl}-2,4-dioxo-1,4-di-hydropyrido[2,3-d]pyrimidin-3(2H)-yl]cyclohexyl}-1-methyl-1H-imidazole-2-carboxamide]: the IC50 was 0.316 nM.

For `O=c1c2cc(F)cnc2n(-c2cccc(-c3ccc(O)cc3CN3CCOCC3)c2)c(=O)n1[C@H]1CC[C@@H](NCc2cn3cc(F)ccc3n2)CC1` [Example 246], the IC50 is 0.02 nM.

Take `CC(C)N(CCO)Cc1ccc(-c2cccc(-n3c(=O)n([C@H]4CC[C@@H](NC(=O)c5cn6c(n5)CCCC6)CC4)c(=O)c4cc(F)cnc43)c2)cc1` [Example 121, N-{cis-4-[6-fluoro-1-(4′-{[(2-hydroxyethyl)(isopropyl)amino]methyl}biphenyl-3-yl)-2,4-dioxo-1,4-dihydropyrido[2,3-d]pyrimidin-3(2H)-yl]cyclohexyl}-5,6,7,8-tetrahydroimidazo[1,2-a]pyridine-2-carboxamide]: the IC50 was 0.158 nM.

With `CN(Cc1cc(O)ccc1-c1cccc(-n2c(=O)n([C@H]3CC[C@@H](NCc4cn5cc(F)ccc5n4)CC3)c(=O)c3cc(F)cnc32)c1)CC1(O)CC1` [Example 322, 6-fluoro-3-(cis-4-{[(6-fluoroimidazo[1,2-c]pyridin-2-yl)methyl]amino}cyclohexyl)-1-(4′-hydroxy-2′-{[[(1-hydroxycyclopropyl)methyl](methyl)amino]methyl}biphenyl-3-yl)pyrido[2,3-d]pyrimidine-2,4(1H,3H)-dione], the IC50 was 0.251 nM.

In the case of `CNCCNCc1ccc(-c2cc(C)cc(-n3c(=O)n([C@H]4CC[C@@H](NC(=O)c5cn6cc(F)ccc6n5)CC4)c(=O)c4cc(F)cnc43)c2)cc1` [Example 231], the IC50 was 0.126 nM.

As for `CCCCc1ccc(C(=O)N[C@H]2CC[C@@H](n3c(=O)c4cc(F)cnc4n(-c4cccc(-c5ccc(CN6CCCNCC6)cc5)c4)c3=O)CC2)nc1` [Example 351, 5-butyl-N-{cis-4-[1-[4′-(1,4-diazepan-1-ylmethyl)biphenyl-3-yl]-6-fluoro-2,4-dioxo-1,4-dihydropyrido[2,3-d]pyrimidin-3(2H)-yl]cyclohexyl}pyridine-2-carboxamide], the IC50 was 0.0316 nM.
